Calls of active or inactive are those of the source. No cut-off for these calls is given here.
Experiments:
[1] = tested on: BV-2; test: Cytotoxicity against mouse BV2 cells incubated for 48 hrs by MTT assay; format: cell-based; settings: BV-2, 48 h
[2] = tested on: BV-2; test: Antiinflammatory activity against mouse BV2 cells assessed as decrease in LPS-induced NO production at 1 to 5 uM pretreated with compound followed by LPS stimulation incubated for 4 to 48 hrs by enzyme immunoassay; format: functional, cell-based; settings: dose 1-5 µM, time 4-48 hrs
[3] = tested on: HCT-116; test: Growth inhibition of human HCT-116 cells at 10 uM incubated for 48 hrs by sulforhodamine B assay relative to control; format: functional; settings: read-out: GI
[4] = tested on: OVCAR-5; test: Growth inhibition of human OVCAR-5 cells incubated for 48 hrs by sulforhodamine B assay; format: functional
[5] = tested on: CAKI-1; test: Growth inhibition of human CAKI-1 cells incubated for 48 hrs by sulforhodamine B assay; format: functional
[6] = Therapeutic index, ratio of LC50 for human Panel NCI-60 (60 carcinoma cell lines) to GI50 for human Panel NCI-60 (60 carcinoma cell lines); format: functional
[7] = tested on: IGROV-1; test: Growth inhibition of human IGROV-1 cells at 10 uM incubated for 48 hrs by sulforhodamine B assay relative to control; format: functional; settings: read-out: GI
[8] = tested on: NCI-H226; test: Growth inhibition of human NCI-H226 cells at 10 uM incubated for 48 hrs by sulforhodamine B assay relative to control; format: functional; settings: read-out: GI
[9] = tested on: Panel NCI-60 (60 carcinoma cell lines); test: Growth inhibition of human Panel NCI-60 (60 carcinoma cell lines) incubated for 48 hrs by sulforhodamine B assay; format: functional
[10] = tested on: SR; test: Growth inhibition of human SR cells incubated for 48 hrs by sulforhodamine B assay; format: functional
[11] = tested on: U-251; test: Growth inhibition of human U-251 cells incubated for 48 hrs by sulforhodamine B assay; format: functional
[12] = tested on: HOP-62; test: Growth inhibition of human HOP-62 cells incubated for 48 hrs by sulforhodamine B assay; format: functional
[13] = tested on: MDA-MB-231; test: Growth inhibition of human MDA-MB-231 cells at 10 uM incubated for 48 hrs by sulforhodamine B assay relative to control; format: functional; settings: read-out: GI
[14] = tested on: UACC-62; test: Growth inhibition of human UACC-62 cells at 10 uM incubated for 48 hrs by sulforhodamine B assay relative to control; format: functional; settings: read-out: GI
[15] = tested on: TK-10; test: Growth inhibition of human TK-10 cells incubated for 48 hrs by sulforhodamine B assay; format: functional
[16] = tested on: UACC-62; test: Growth inhibition of human UACC-62 cells incubated for 48 hrs by sulforhodamine B assay; format: functional
[17] = tested on: K562; test: Growth inhibition of human K562 cells incubated for 48 hrs by sulforhodamine B assay; format: functional
[18] = tested on: SF-295; test: Growth inhibition of human SF-295 cells incubated for 48 hrs by sulforhodamine B assay; format: functional
[19] = tested on: HOP-92; test: Growth inhibition of human HOP-92 cells incubated for 48 hrs by sulforhodamine B assay; format: functional
[20] = tested on: OVCAR-5; test: Growth inhibition of human OVCAR-5 cells at 10 uM incubated for 48 hrs by sulforhodamine B assay relative to control; format: functional; settings: read-out: GI
[21] = tested on: SW-620; test: Growth inhibition of human SW-620 cells at 10 uM incubated for 48 hrs by sulforhodamine B assay relative to control; format: functional; settings: read-out: GI
[22] = tested on: BV-2; test: Antiinflammatory activity against mouse BV2 cells assessed as reduction in LPS-induced IL6 production at 1 uM by enzyme immunoassay; format: functional, cell-based
[23] = tested on: UO-31; test: Growth inhibition of human UO-31 cells incubated for 48 hrs by sulforhodamine B assay; format: functional
[24] = tested on: UO-31; test: Growth inhibition of human UO-31 cells at 10 uM incubated for 48 hrs by sulforhodamine B assay relative to control; format: functional; settings: read-out: GI
[25] = tested on: MDA-MB-468; test: Growth inhibition of human MDA-MB-468 cells incubated for 48 hrs by sulforhodamine B assay; format: functional
[26] = tested on: SW-620; test: Growth inhibition of human SW-620 cells incubated for 48 hrs by sulforhodamine B assay; format: functional
[27] = tested on: SK-MEL-2; test: Growth inhibition of human SK-MEL-2 cells at 10 uM incubated for 48 hrs by sulforhodamine B assay relative to control; format: functional; settings: read-out: GI
[28] = tested on: IGROV-1; test: Growth inhibition of human IGROV-1 cells incubated for 48 hrs by sulforhodamine B assay; format: functional
[29] = tested on: OVCAR-4; test: Growth inhibition of human OVCAR-4 cells incubated for 48 hrs by sulforhodamine B assay; format: functional
[30] = tested on: T47D; test: Growth inhibition of human T47D cells incubated for 48 hrs by sulforhodamine B assay; format: functional
[31] = tested on: BV-2; test: Antiinflammatory activity against mouse BV2 cells assessed as inhibition of LPS-induced TNFalpha production at 1 uM by enzyme immunoassay; format: functional
[32] = tested on: T47D; test: Growth inhibition of human T47D cells at 10 uM incubated for 48 hrs by sulforhodamine B assay relative to control; format: functional; settings: read-out: GI
[33] = tested on: RPMI-8226; test: Growth inhibition of human RPMI8226 cells at 10 uM incubated for 48 hrs by sulforhodamine B assay relative to control; format: functional; settings: read-out: GI
[34] = tested on: K562; test: Growth inhibition of human K562 cells at 10 uM incubated for 48 hrs by sulforhodamine B assay relative to control; format: functional; settings: read-out: GI
[35] = tested on: CAKI-1; test: Growth inhibition of human CAKI-1 cells at 10 uM incubated for 48 hrs by sulforhodamine B assay relative to control; format: functional; settings: read-out: GI
[36] = tested on: HOP-92; test: Growth inhibition of human HOP-92 cells at 10 uM incubated for 48 hrs by sulforhodamine B assay relative to control; format: functional; settings: read-out: GI
[37] = tested on: U-251; test: Growth inhibition of human U-251 cells at 10 uM incubated for 48 hrs by sulforhodamine B assay relative to control; format: functional; settings: read-out: GI
[38] = tested on: SF-295; test: Growth inhibition of human SF-295 cells at 10 uM incubated for 48 hrs by sulforhodamine B assay relative to control; format: functional; settings: read-out: GI
[39] = tested on: MDA-MB-231; test: Growth inhibition of human MDA-MB-231 cells incubated for 48 hrs by sulforhodamine B assay; format: functional
[40] = tested on: OVCAR-4; test: Growth inhibition of human OVCAR-4 cells at 10 uM incubated for 48 hrs by sulforhodamine B assay relative to control; format: functional; settings: read-out: GI
[41] = tested on: NCI-H460; test: Growth inhibition of human NCI-H460 cells incubated for 48 hrs by sulforhodamine B assay; format: functional
[42] = tested on: RPMI-8226; test: Growth inhibition of human RPMI-8226 cells incubated for 48 hrs by sulforhodamine B assay; format: functional; settings: dose 10 µM
[43] = tested on: TK-10; test: Growth inhibition of human TK-10 cells at 10 uM incubated for 48 hrs by sulforhodamine B assay relative to control; format: functional; settings: read-out: GI
[44] = tested on: HCT-116; test: Growth inhibition of human HCT-116 cells incubated for 48 hrs by sulforhodamine B assay; format: functional
[45] = tested on: MCF7; test: Growth inhibition of human MCF7 cells at 10 uM incubated for 48 hrs by sulforhodamine B assay relative to control; format: functional; settings: read-out: GI
[46] = tested on: MCF7; test: Growth inhibition of human MCF7 cells incubated for 48 hrs by sulforhodamine B assay; format: functional
[47] = tested on: SK-MEL-2; test: Growth inhibition of human SK-MEL-2 cells incubated for 48 hrs by sulforhodamine B assay; format: functional
[48] = tested on: SR; test: Growth inhibition of human SR cells at 10 uM incubated for 48 hrs by sulforhodamine B assay relative to control; format: functional; settings: read-out: GI
[49] = tested on: MDA-MB-468; test: Growth inhibition of human MDA-MB-468 cells at 10 uM incubated for 48 hrs by sulforhodamine B assay relative to control; format: functional; settings: read-out: GI
[50] = tested on: HOP-62; test: Growth inhibition of human HOP-62 cells at 10 uM incubated for 48 hrs by sulforhodamine B assay relative to control; format: functional; settings: read-out: GI
[51] = tested on: UACC-257; test: Growth inhibition of human UACC-257 cells incubated for 48 hrs by sulforhodamine B assay; format: functional
[52] = tested on: OVCAR-3; test: Growth inhibition of human OVCAR-3 cells incubated for 48 hrs by sulforhodamine B assay; format: functional
[53] = tested on: NCI-H226; test: Growth inhibition of human NCI-H226 cells incubated for 48 hrs by sulforhodamine B assay; format: functional
[54] = tested on: UACC-257; test: Growth inhibition of human UACC-257 cells at 10 uM incubated for 48 hrs by sulforhodamine B assay relative to control; format: functional; settings: read-out: GI
[55] = tested on: OVCAR-3; test: Growth inhibition of human OVCAR-3 cells at 10 uM incubated for 48 hrs by sulforhodamine B assay relative to control; format: functional; settings: read-out: GI
[56] = tested on: NCI-H460; test: Growth inhibition of human NCI-H460 cells at 10 uM incubated for 48 hrs by sulforhodamine B assay relative to control; format: functional; settings: read-out: GI
[57] = read-out: LC50 (the source's name)

With `C#CCn1cc(C2C(Cl)C(=O)N2c2ccc(N3CCOCC3=O)cc2)c2ccccc21` (stereo not drawn) the IC50 [1] was over 10000 nM and the Activity [2] was “Active”.
In the case of `O=C1COCCN1c1ccc(NCc2cn(Cc3ccc(F)cc3)c3ccccc23)cc1`, the inhibition of growth at 10 µM [3] is reported as 96%, the GI50 [4] is reported as 40 nM and the CC50 [4, 57] is reported as over 100000 nM. For the same molecule, the GI50 [5] was 20 nM, the CC50 [5, 57] was over 100000 nM and the TI [6] was 54. The inhibition of growth at 10 µM [7] was 100%, the inhibition of growth at 10 µM [8] was 100% and the GI50 [9] was 1310 nM. The TGI [9] was 15100 nM, the CC50 [9, 57] was 70800 nM and the GI50 [10] was 4500 nM. The GI50 [11] was 1410 nM, the GI50 [12] was 1470 nM and the inhibition of growth at 10 µM [13] was 72%. The inhibition of growth at 10 µM [14] was 100%, the GI50 [15] was 40 nM and the CC50 [15, 57] was over 100000 nM. For the same molecule, the GI50 [16] was 40 nM, the CC50 [16, 57] was 800 nM and the GI50 [17] was 1510 nM. For the same molecule, the GI50 [18] was 1090 nM, the GI50 [19] was 1540 nM and the inhibition of growth at 10 µM [20] was 100%. For the same molecule, the inhibition of growth at 10 µM [21] was 87%, the Activity [22] was “Active” and the GI50 [23] was 2750 nM. The inhibition of growth at 10 µM [24] was 96%, the GI50 [25] was 20 nM and the CC50 [25, 57] was 500 nM. It also gave a GI50 [26] of 480 nM, an inhibition of growth at 10 µM [27] of 100% and a GI50 [28] of 30 nM. It also gave a CC50 [28, 57] of over 100000 nM, a GI50 [29] of 150 nM and an IC50 [1] of over 10000 nM. For the same molecule, the GI50 [30] was 70 nM, the Activity [31] was “Active” and the inhibition of growth at 10 µM [32] was 99%. The inhibition of growth at 10 µM [33] was 98%, the inhibition of growth at 10 µM [34] was 89% and the inhibition of growth at 10 µM [35] was 100%. The inhibition of growth at 10 µM [36] was 96%, the Activity [2] was “Active” and the inhibition of growth at 10 µM [37] was 80%. For the same molecule, the inhibition of growth at 10 µM [38] was 90%, the GI50 [39] was 3800 nM and the inhibition of growth at 10 µM [40] was 100%. It also gave a GI50 [41] of 120 nM, a GI50 [42] of 540 nM and an inhibition of growth at 10 µM [43] of 100%. The GI50 [44] was 50 nM, the CC50 [44, 57] was over 100000 nM and the inhibition of growth at 10 µM [45] was 100%. It also gave a GI50 [46] of 110 nM, a GI50 [47] of 1200 nM and an inhibition of growth at 10 µM [48] of 68%. It also gave an inhibition of growth at 10 µM [49] of 100%, an inhibition of growth at 10 µM [50] of 77% and a GI50 [51] of 200 nM. It also gave a GI50 [52] of 280 nM, a GI50 [53] of 40 nM and a CC50 [53, 57] of 1100 nM. The inhibition of growth at 10 µM [54] was 100%, the inhibition of growth at 10 µM [55] was 100% and the inhibition of growth at 10 µM [56] was 93%.

Reference: ChEMBL document CHEMBL4814018, “Rationally designed TNF-α inhibitors: Identification of promising cytotoxic agents” (Bioorg Med Chem Lett, 2021)
